Source: publication PMC4229100, “A Two-Step Strategy to Enhance Activity of Low Potency Peptides” (PLoS ONE, 2014)
Like-named read-outs stand apart in the source and are kept apart here. Ends that are not written are not given here. Peptide text beside a SMILES is read from it. * marks the point of attachment. PEG8 = NCCOCCOCCOCCOCCOCCOCCOCCOCCC(=O)O; Palmitoyl = CCCCCCCCCCCCCCCC(=O)*

Tests used:
CCK2R [1] = biological target: T1, CCK2R (Homo sapiens, UniProt P32239); experiment: SRE-luciferase reporter agonist assay in HEK293 cells transfected with CCK2R; details: for CCK2R mediated signaling (agonist activity, in words): HEK293, SRE-Luc, relative to 10 µM s-CCK4-NH2, MTL coexpressed 24 hours, peptides 4 hours
T1 sequence (P32239 1-447): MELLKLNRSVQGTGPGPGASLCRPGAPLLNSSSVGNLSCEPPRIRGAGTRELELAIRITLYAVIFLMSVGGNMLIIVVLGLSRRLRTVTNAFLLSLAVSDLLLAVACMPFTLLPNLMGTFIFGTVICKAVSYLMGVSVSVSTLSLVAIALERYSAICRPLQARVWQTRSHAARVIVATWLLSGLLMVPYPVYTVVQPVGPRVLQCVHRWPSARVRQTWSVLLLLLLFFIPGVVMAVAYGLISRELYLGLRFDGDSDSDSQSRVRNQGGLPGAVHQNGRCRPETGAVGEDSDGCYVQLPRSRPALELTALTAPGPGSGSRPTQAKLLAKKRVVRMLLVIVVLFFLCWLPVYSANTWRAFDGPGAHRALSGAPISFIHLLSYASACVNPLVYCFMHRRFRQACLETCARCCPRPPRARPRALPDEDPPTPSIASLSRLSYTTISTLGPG
Description: (§1) Human embryonic kidney cells (HEK293) were maintained at 37°C in a humidified 5% CO2 atmosphere and cultured with Dulbecco’s modified Eagle’s medium (Invitrogen, Chicago, IL) containing 10% fetal bovine serum, 100 U/mL penicillin, and 100 µg/mL streptomycin. Cells were seeded into 96-well plates and grown to ∼80% confluence. Cells were transfected for 24 hours using polyethylenimine (Sigma, Atlanta, GA) in serum-free medium [17] with cDNAs encoding, a) tethered ligand (where noted), b) 3 ng of indicated receptor, c) 25 ng of a 5X-SRE-Luc-pest (pGL4.33), a luciferase reporter construct under the control of a serum response element (Promega, Madison, WI), and d) 10 ng of β-galactosidase to control for transfection efficiency.
The CCK2 receptor was cloned as previously reported [18]; the CCK1R cDNA was PCR amplified based on a published sequence [19]. Each receptor cDNA encoding the human sequence was subcloned into pcDNA1.1. […] The nucleotide sequences of all receptor and tethered ligand coding regions were confirmed by automated DNA sequencing and analyzed using Vector NTI software (Invitrogen, Chicago, IL). The expression of membrane tethered Substance P, CCK4, and CCK4-Gly was assessed by ELISA using an antibody directed to the myc epitope tag within the MTL cDNA construct [8].
(§2) Tethered ligand induced signaling was assessed in HEK293 cells 24 hours after transfection. For soluble and lipidated peptides, 20 hours following transfection, cells were stimulated in serum-free medium for an additional 4 hours. […] With tethered ligands, antagonists were added 4 hours after transfection; activity was assessed following an additional 20 hour incubation. Quantification of luciferase and β-galactosidase activities were performed as previously described [6]. Data were analyzed by nonlinear curve fitting using Graph Pad Prism 5.0 software.
HEK293 cells were transiently cotransfected with cDNAs encoding: the designated CCK receptor subtype, a 5X-SRE-Luc-pest reporter construct (pGL4.33), tethered ligand (as indicated) and a β-galactosidase gene to control for transfection efficiency. Tethered ligand activity was measured 24 hours following transfection. To assess activity of soluble and lipidated CCK4-Gly, cells were stimulated for an additional 4 hours with ligand. […] Data represent the mean ± SEM from 3 independent experiments, each performed in triplicate.

CCK1R = biological target: T2, CCK1R (Homo sapiens, UniProt P32238); experiment: SRE-luciferase reporter agonist assay in HEK293 cells transfected with CCK1R; details: HEK293, SRE-Luc; relative to 10 µM s-CCK8-NH2; MTL coexpressed 24 hours, peptides 4 hours
T2 sequence (P32238 1-428): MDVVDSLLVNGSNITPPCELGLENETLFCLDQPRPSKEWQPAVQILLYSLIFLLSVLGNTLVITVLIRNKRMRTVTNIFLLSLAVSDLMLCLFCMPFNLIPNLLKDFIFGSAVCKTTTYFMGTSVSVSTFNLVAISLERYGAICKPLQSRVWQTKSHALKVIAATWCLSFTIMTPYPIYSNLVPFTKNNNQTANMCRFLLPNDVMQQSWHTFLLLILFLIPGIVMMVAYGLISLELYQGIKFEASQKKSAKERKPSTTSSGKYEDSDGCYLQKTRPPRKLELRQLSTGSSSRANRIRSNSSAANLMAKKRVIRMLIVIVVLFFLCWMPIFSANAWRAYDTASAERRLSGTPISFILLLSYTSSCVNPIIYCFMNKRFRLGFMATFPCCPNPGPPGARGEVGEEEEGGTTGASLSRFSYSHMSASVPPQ
Description: Human embryonic kidney cells (HEK293) were maintained at 37°C in a humidified 5% CO2 atmosphere and cultured with Dulbecco’s modified Eagle’s medium (Invitrogen, Chicago, IL) containing 10% fetal bovine serum, 100 U/mL penicillin, and 100 µg/mL streptomycin. Cells were seeded into 96-well plates and grown to ∼80% confluence. […]
The CCK2 receptor was cloned as previously reported [18]; the CCK1R cDNA was PCR amplified based on a published sequence [19]. […] The nucleotide sequences of all receptor and tethered ligand coding regions were confirmed by automated DNA sequencing and analyzed using Vector NTI software (Invitrogen, Chicago, IL). The expression of membrane tethered Substance P, CCK4, and CCK4-Gly was assessed by ELISA using an antibody directed to the myc epitope tag within the MTL cDNA construct [8].
(§3) Tethered ligand induced signaling was assessed in HEK293 cells 24 hours after transfection. […] With tethered ligands, antagonists were added 4 hours after transfection; activity was assessed following an additional 20 hour incubation. Quantification of luciferase and β-galactosidase activities were performed as previously described [6]. Data were analyzed by nonlinear curve fitting using Graph Pad Prism 5.0 software. […]

NK1R [2] = biological target: T3, NK1R (Homo sapiens, UniProt P25103)
T3 sequence (P25103 whole entry): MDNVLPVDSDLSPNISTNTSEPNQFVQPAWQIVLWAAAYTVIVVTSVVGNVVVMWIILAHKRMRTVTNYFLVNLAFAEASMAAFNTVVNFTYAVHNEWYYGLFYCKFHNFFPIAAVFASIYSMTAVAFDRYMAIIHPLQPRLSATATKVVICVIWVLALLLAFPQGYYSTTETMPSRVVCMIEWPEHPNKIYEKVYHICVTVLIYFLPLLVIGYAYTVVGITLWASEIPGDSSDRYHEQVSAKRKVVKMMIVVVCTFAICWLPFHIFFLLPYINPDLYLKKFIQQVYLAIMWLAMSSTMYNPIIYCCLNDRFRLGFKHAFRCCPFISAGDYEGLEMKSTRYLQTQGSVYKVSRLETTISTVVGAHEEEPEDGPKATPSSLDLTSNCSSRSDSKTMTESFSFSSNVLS
Description: as §1
(§4) The expression of membrane tethered Substance P, CCK4, and CCK4-Gly was assessed by ELISA using an antibody directed to the myc epitope tag within the MTL cDNA construct [8].
as §2
(§5) HEK293 cells were transiently cotransfected for 24 hours with cDNAs encoding: the designated NK receptor subtype, a 5X-SRE-Luc-pest reporter construct (pGL4.33), tethered ligand (for MTL assays, left panels), and a β-galactosidase gene to control for transfection variability. For assessment of SMAL induced signaling, cells were stimulated with ligand for an additional 4 hours. […] Data represent the mean ± SEM from 3 independent experiments, each performed in triplicate.

NK1R [3] = biological target: T3, NK1R; experiment: cell-based
Description: as §1, §4, §2, §5

NK2R = biological target: T4, NK2R (Homo sapiens, UniProt P21452); experiment: SRE-luciferase reporter agonist assay in HEK293 cells transfected with NK2R; details: HEK293, SRE-Luc; relative to 1 µM s-SubP-NH2; MTL coexpressed 24 hours, peptides 4 hours
T4 sequence (P21452 1-398): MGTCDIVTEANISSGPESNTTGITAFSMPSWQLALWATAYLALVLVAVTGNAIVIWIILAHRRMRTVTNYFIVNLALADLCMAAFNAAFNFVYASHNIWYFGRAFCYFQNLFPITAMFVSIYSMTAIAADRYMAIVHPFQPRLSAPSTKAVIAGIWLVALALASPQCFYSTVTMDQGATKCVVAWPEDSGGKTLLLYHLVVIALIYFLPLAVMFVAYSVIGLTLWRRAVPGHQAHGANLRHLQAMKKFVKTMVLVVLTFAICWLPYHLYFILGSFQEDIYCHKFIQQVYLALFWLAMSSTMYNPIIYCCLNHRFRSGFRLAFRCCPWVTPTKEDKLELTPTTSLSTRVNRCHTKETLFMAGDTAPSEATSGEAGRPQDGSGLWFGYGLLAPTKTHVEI
Description: as §1, §4, §3

NK3R = biological target: T5, NK3R (Homo sapiens, UniProt P29371); experiment: SRE-luciferase reporter agonist assay in HEK293 cells transfected with NK3R; details: HEK293, SRE-Luc; relative to 1 µM s-SubP-NH2; MTL coexpressed 24 hours, peptides 4 hours
T5 sequence (P29371 1-465): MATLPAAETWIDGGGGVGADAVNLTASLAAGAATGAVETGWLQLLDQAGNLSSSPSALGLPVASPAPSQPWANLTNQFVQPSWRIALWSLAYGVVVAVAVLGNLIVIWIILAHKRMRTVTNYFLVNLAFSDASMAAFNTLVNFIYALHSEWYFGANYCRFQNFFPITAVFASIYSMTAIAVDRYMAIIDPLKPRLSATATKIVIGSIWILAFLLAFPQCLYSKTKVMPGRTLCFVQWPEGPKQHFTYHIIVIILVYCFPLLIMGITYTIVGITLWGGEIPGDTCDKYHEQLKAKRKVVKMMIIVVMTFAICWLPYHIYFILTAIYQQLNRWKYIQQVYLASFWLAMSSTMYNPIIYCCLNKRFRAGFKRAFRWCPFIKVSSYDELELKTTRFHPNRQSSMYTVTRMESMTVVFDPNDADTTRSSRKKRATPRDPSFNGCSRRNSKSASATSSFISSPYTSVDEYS
Description: as §1, §4, §3

CCK2R [4] = biological target: T1, CCK2R; experiment: Antagonist inhibition of agonist-induced CCK2R signaling (SRE-luciferase, HEK293); format: cell-based; parameters: expressed in transfected cells; host or cells: HEK293
Description: Figure 6 YM022 inhibits CCK2R signaling induced by tethered CCK4-Gly, soluble CCK4-Gly, or lipidated CCK4-Gly. A) YM022 blocks tethered CCK4-Gly mediated CCK2R signaling. […] Four hours following transfection, cells were with treated with increasing concentrations of YM022 for 20 hours. […] B) YM022 blocks s-CCK4-Gly-COOH and l-CCK4-Gly-COOH mediated activation of CCK2R. HEK293 cells were transfected as indicated above. Twenty hours after transfection, cells were with treated with increasing concentrations of YM022 together with either 10 µM of l-CCK4-Gly-COOH or s-CCK4-Gly-COOH.

## CCCCCCCCCCCCCCCC(=O)NCCOCCOCCOCCOCCOCCOCCOCCOCCC(=O)NCC(=O)NCC(=O)N[C@@H](Cc1c[nH]c2ccccc12)C(=O)N[C@@H](CCSC)C(=O)N[C@@H](CC(=O)O)C(=O)N[C@@H](Cc1ccccc1)C(N)=O [l-CCK4-NH2] ({Palmitoyl-PEG8}-GGWMDF-NH2)
CCK2R [1]
  EC50: 2.6 nM
  CCK2R mediated signaling (agonist activity, in words): does not fully activate

## CCCCCCCCCCCCCCCC(=O)NCCOCCOCCOCCOCCOCCOCCOCCOCCC(=O)NCC(=O)NCC(=O)N[C@@H](Cc1c[nH]c2ccccc12)C(=O)N[C@@H](CCSC)C(=O)N[C@@H](CC(=O)O)C(=O)N[C@@H](Cc1ccccc1)C(=O)NCC(=O)O [l-CCK4-Gly-COOH] ({Palmitoyl-PEG8}-GGWMDFG-OH)
CCK2R [1]
  EC50: > 1000 nM
  CCK2R mediated signaling (agonist activity, in words): activated
CCK1R
  CCK1R mediated signaling (agonist activity, in words): lacked activity

## CCCCCCCCCCCCCCCC(=O)NCCOCCOCCOCCOCCOCCOCCOCCOCCC(=O)NCCCC[C@H](NC(C)=O)C(=O)NCC(=O)NCC(=O)N[C@@H](CCCNC(=N)N)C(=O)N1CCC[C@H]1C(=O)N[C@@H](CCCCN)C(=O)N1CCC[C@H]1C(=O)N[C@@H](CCC(N)=O)C(=O)N[C@@H](CCC(N)=O)C(=O)N[C@@H](Cc1ccccc1)C(=O)N[C@@H](Cc1ccccc1)C(=O)NCC(=O)N[C@@H](CC(C)C)C(=O)N[C@@H](CCSC)C(=O)O [l-SubP-COOH]
NK1R [2]; HEK293, SRE-Luc, relative to 1 µM s-SubP-NH2, MTL coexpressed 24 hours, peptides 4 hours
  NK1R mediated signaling (agonist activity, in words): activated
NK1R [3]
  EC50: 6.1 nM
NK2R
  NK2R mediated signaling (agonist activity, in words): no signaling was observed
NK3R
  NK3R mediated signaling (agonist activity, in words): activated

## Cc1cccc(NC(=O)N[C@@H]2N=C(c3ccccc3)c3ccccc3N(CC(=O)c3ccccc3C)C2=O)c1 [YM022, (R)-1-[2,3-dihydro-1-(2′-methylphenacyl)-2-oxo-5-phenyl-1H-1,4-benzodiazepin-3-yl]-3-(3-methylphenyl)urea]
CCK2R [4]; agonist 10 µM l-CCK4-Gly-COOH, 4 hours, read-out: IC50 for inhibition of l-CCK4-Gly-COOH induced CCK2R signaling
  IC50: 10.2 nM
CCK2R [4]; agonist 10 µM s-CCK4-Gly-COOH, 4 hours, read-out: IC50 for inhibition of s-CCK4-Gly-COOH induced CCK2R signaling
  IC50: 0.84 nM
CCK2R [4]; agonist tCCK4-Gly (coexpressed MTL), antagonist added 4 hours after transfection for 20 hours, read-out: IC50 for inhibition of tCCK4-Gly induced CCK2R signaling
  IC50: 0.54 nM

## CCCCCCCCCCCCCCCC(=O)NCCOCCOCCOCCOCCOCCOCCOCCOCCC(=O)NCCCC[C@H](Nc1ccc([N+](=O)[O-])c2nonc12)C(=O)NCC(=O)NCC(=O)N[C@@H](CCCNC(=N)N)C(=O)N1CCC[C@H]1C(=O)N[C@@H](CCCCN)C(=O)N1CCC[C@H]1C(=O)N[C@@H](CCC(N)=O)C(=O)N[C@@H](CCC(N)=O)C(=O)N[C@@H](Cc1ccccc1)C(=O)N[C@@H](Cc1ccccc1)C(=O)NCC(=O)N[C@@H](CC(C)C)C(=O)N[C@@H](CCSC)C(N)=O [l-SubP-NH2]
NK1R [2]
  NK1R mediated signaling (agonist activity, in words): fully active
  Potency at NK1R compared with soluble counterpart (in words): more potent than s-SubP-NH2
NK1R [3]
  EC50: 0.4 nM

## WMDFG [s-CCK4-Gly-COOH]
CCK2R [1]
  EC50: > 1000 nM
